Experimental data reported in ChEMBL document CHEMBL1201862, “PubChem BioAssay data set” (2004).
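Results reflect a 48-hour exposure of cells in 96-well plates to compound at five concentrations. Here, GI50 denotes the concentration required for 50% inhibition of growth.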 Active and inactive are the calls of the source. No stated cut-off is given here; in the data, active = GI50 up to about 1.1 µM and inactive = higher.

Experiments:
Assay in all cases: growth of human tumour cells (NCI), 48 h
786-0 = test system: 786-0
A498 = test system: A498
A549 = test system: A549
ACHN = test system: ACHN
BT-549 = test system: BT-549
CAKI-1 = test system: CAKI-1
CCRF-CEM = test system: CCRF-CEM
COLO 205 = test system: COLO 205
DU-145 = test system: DU-145
EKVX = test system: EKVX
HCC 2998 = test system: HCC 2998
HCT-116 = test system: HCT-116
HCT-15 = test system: HCT-15
HL-60 = test system: HL-60
HOP-62 = test system: HOP-62
HOP-92 = test system: HOP-92
HT-29 = test system: HT-29
Hs-578T = test system: Hs-578T
IGROV-1 = test system: IGROV-1
KM12 = test system: KM12
LOX IMVI = test system: LOX IMVI
M14 = test system: M14
MCF7 = test system: MCF7
MDA-MB-231 = test system: MDA-MB-231
MDA-MB-435 = test system: MDA-MB-435
MDA-N = test system: MDA-N
MOLT-4 = test system: MOLT-4
Malme-3M = test system: Malme-3M
NCI-H226 = test system: NCI-H226
NCI-H23 = test system: NCI-H23
NCI-H460 = test system: NCI-H460
NCI-H522 = test system: NCI-H522
NCI/ADR-RES = test system: NCI/ADR-RES
OVCAR-3 = test system: OVCAR-3
OVCAR-4 = test system: OVCAR-4
OVCAR-5 = test system: OVCAR-5
OVCAR-8 = test system: OVCAR-8
PC-3 = test system: PC-3
RPMI-8226 = test system: RPMI-8226
RXF 393 = test system: RXF 393
SF-268 = test system: SF-268
SF-295 = test system: SF-295
SF-539 = test system: SF-539
SK-MEL-28 = test system: SK-MEL-28
SK-MEL-2 = test system: SK-MEL-2
SK-OV-3 = test system: SK-OV-3
SN12C = test system: SN12C
SNB-19 = test system: SNB-19
SNB-75 = test system: SNB-75
SW-620 = test system: SW-620
T47D = test system: T47D
TK-10 = test system: TK-10
U-251 = test system: U-251
UACC-257 = test system: UACC-257
UACC-62 = test system: UACC-62
UO-31 = test system: UO-31
K562 = test system: K562
SK-MEL-5 = test system: SK-MEL-5

## CCOC(=O)/C=C\c1c(Cl)n(-c2ccccc2)c(=O)n(-c2ccccc2)c1=O
786-0
  GI50: 20.3 µM (inactive)
A498
  GI50: 21.3 µM (inactive)
A549
  GI50: 25.1 µM (inactive)
ACHN
  GI50: 20.7 µM (inactive)
BT-549
  GI50: 20.2 µM (inactive)
CAKI-1
  GI50: 19.5 µM (inactive)
CCRF-CEM
  GI50: 21.9 µM (inactive)
COLO 205
  GI50: 18.5 µM (inactive)
DU-145
  GI50: 18.8 µM (inactive)
EKVX
  GI50: 21 µM (inactive)
HCC 2998
  GI50: 18.5 µM (inactive)
HCT-116
  GI50: 23.8 µM (inactive)
HCT-15
  GI50: 19.8 µM
HL-60
  GI50: 4.63 µM (inactive)
HOP-62
  GI50: 20.8 µM (inactive)
HOP-92
  GI50: 15.8 µM (inactive)
HT-29
  GI50: 19 µM (inactive)
Hs-578T
  GI50: 27.3 µM (inactive)
IGROV-1
  GI50: 17.6 µM (inactive)
KM12
  GI50: 19.1 µM (inactive)
LOX IMVI
  GI50: 22.6 µM (inactive)
M14
  GI50: 18.7 µM (inactive)
MCF7
  GI50: 22.6 µM (inactive)
MDA-MB-231
  GI50: 21.2 µM (inactive)
MDA-MB-435
  GI50: 22.1 µM (inactive)
MDA-N
  GI50: 17 µM (inactive)
MOLT-4
  GI50: 38.5 µM (inactive)
Malme-3M
  GI50: 24.5 µM (inactive)
NCI-H226
  GI50: 20.7 µM (inactive)
NCI-H23
  GI50: 21.7 µM (inactive)
NCI-H460
  GI50: 18 µM (inactive)
NCI-H522
  GI50: 18.1 µM (inactive)
NCI/ADR-RES
  GI50: 26.5 µM (inactive)
OVCAR-3
  GI50: 19.3 µM (inactive)
OVCAR-4
  GI50: 30 µM (inactive)
OVCAR-5
  GI50: 20.6 µM (inactive)
OVCAR-8
  GI50: 17.4 µM (inactive)
PC-3
  GI50: 18.7 µM (inactive)
RPMI-8226
  GI50: > 10 µM (inactive)
RXF 393
  GI50: 17.9 µM (inactive)
SF-268
  GI50: 20.7 µM (inactive)
SF-295
  GI50: 21.9 µM (inactive)
SF-539
  GI50: 17.2 µM (inactive)
SK-MEL-28
  GI50: 18.9 µM (inactive)
SK-MEL-2
  GI50: 17.7 µM (inactive)
SK-OV-3
  GI50: 22.2 µM (inactive)
SN12C
  GI50: 19.6 µM (inactive)
SNB-19
  GI50: 16 µM (inactive)
SNB-75
  GI50: 14.9 µM (inactive)
SW-620
  GI50: 23.8 µM (inactive)
T47D
  GI50: 20.2 µM (inactive)
TK-10
  GI50: 18.1 µM (inactive)
U-251
  GI50: 32 µM (inactive)
UACC-257
  GI50: 18.6 µM (inactive)
UACC-62
  GI50: 18.3 µM (inactive)
UO-31
  GI50: 18.8 µM (inactive)

## C/C=C\C(CC(=O)NCCC1CN(S(=O)(=O)c2ccc(C)cc2)c2ccccc21)CC(=O)OC (stereo not drawn)
786-0
  GI50: > 100 µM (inactive)
A498
  GI50: > 100 µM (inactive)
A549
  GI50: > 100 µM (inactive)
ACHN
  GI50: > 100 µM (inactive)
BT-549
  GI50: > 100 µM (inactive)
CAKI-1
  GI50: > 100 µM (inactive)
COLO 205
  GI50: > 100 µM (inactive)
DU-145
  GI50: > 100 µM (inactive)
EKVX
  GI50: > 100 µM (inactive)
HCC 2998
  GI50: > 100 µM (inactive)
HCT-116
  GI50: > 100 µM (inactive)
HCT-15
  GI50: > 100 µM
HOP-62
  GI50: > 100 µM (inactive)
HOP-92
  GI50: > 100 µM (inactive)
HT-29
  GI50: > 100 µM (inactive)
Hs-578T
  GI50: > 100 µM (inactive)
IGROV-1
  GI50: > 100 µM (inactive)
K562
  GI50: > 100 µM (inactive)
KM12
  GI50: > 100 µM (inactive)
M14
  GI50: > 100 µM (inactive)
MCF7
  GI50: > 100 µM (inactive)
MDA-MB-231
  GI50: > 100 µM (inactive)
MDA-MB-435
  GI50: > 100 µM (inactive)
MDA-N
  GI50: > 100 µM (inactive)
MOLT-4
  GI50: > 100 µM (inactive)
Malme-3M
  GI50: > 100 µM (inactive)
NCI-H23
  GI50: > 100 µM (inactive)
NCI-H460
  GI50: > 100 µM (inactive)
NCI-H522
  GI50: > 100 µM (inactive)
NCI/ADR-RES
  GI50: > 100 µM (inactive)
OVCAR-3
  GI50: > 100 µM (inactive)
OVCAR-4
  GI50: > 100 µM (inactive)
OVCAR-5
  GI50: > 100 µM (inactive)
OVCAR-8
  GI50: > 100 µM (inactive)
PC-3
  GI50: > 100 µM (inactive)
RPMI-8226
  GI50: > 100 µM (inactive)
RXF 393
  GI50: > 100 µM (inactive)
SF-268
  GI50: > 100 µM (inactive)
SF-295
  GI50: > 100 µM (inactive)
SK-MEL-28
  GI50: > 100 µM (inactive)
SK-MEL-2
  GI50: > 100 µM (inactive)
SK-MEL-5
  GI50: > 100 µM (inactive)
SK-OV-3
  GI50: > 100 µM (inactive)
SNB-19
  GI50: > 100 µM (inactive)
SNB-75
  GI50: > 100 µM (inactive)
SW-620
  GI50: > 100 µM (inactive)
T47D
  GI50: > 100 µM (inactive)
TK-10
  GI50: > 100 µM (inactive)
U-251
  GI50: > 100 µM (inactive)
UACC-257
  GI50: > 100 µM (inactive)
UACC-62
  GI50: > 100 µM (inactive)
UO-31
  GI50: > 100 µM (inactive)
